In PubChem BioAssay AID200 (DTP/NCI, 2004) one finds T/C data, which are given here for 18 molecules.

Each structure is given as a SMILES string. Where “and” joins values, the source holds several entries; their conditions need not be identical. Identical values can stand only once. Inconclusive results and toxic doses are left out. Where a SMILES comes first, the peptide text is derived from it. [ ]: non-standard residue; d: D form. The star is where a group is joined. Cbz = O=C(OCc1ccccc1)*; Nva = CCC[CH](N)C(=O)O

The subject of this assay is B6C3F1 mice, B16 melanoma ip, median survival T/C. The assay can be described thus: NCI In Vivo Anticancer Drug Screen. Data for tumor model B16 Melanoma (intraperitoneal) in B6C3F1 mice. To be noted: endpoint: median survival time, higher = longer survival. In outline:
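Tumor-bearing mice received test compound; a separate group got vehicle only. Survival was then compared, with results reported as treated over control.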

Where [1] appears, read: dose: 6.25 mg/kg/injection, schedule: Q01DX009 (ip), vehicle: Klucel (hydroxypropylcellulose) (HPC).
Where [2] appears, read: dose: 12.5 mg/kg/injection, schedule: Q01DX009 (ip), vehicle: Klucel (hydroxypropylcellulose) (HPC).
Where [3] appears, read: dose: 100.0 mg/kg/injection, schedule: Q01DX009 (ip), vehicle: Klucel (hydroxypropylcellulose) (HPC).
Setting [4] is: dose: 200.0 mg/kg/injection, schedule: Q01DX009 (ip), vehicle: Klucel (hydroxypropylcellulose) (HPC).
The mark [5] stands for this setting: dose: 6.25 mg/kg/injection, schedule: Q01DX009 (ip), vehicle: saline with Tween-80.
The mark [6] stands for this setting: dose: 12.5 mg/kg/injection, schedule: Q01DX009 (ip), vehicle: saline with Tween-80.
[7] abbreviates: dose: 25.0 mg/kg/injection, schedule: Q01DX009 (ip), vehicle: saline with Tween-80.
[8] abbreviates: dose: 50.0 mg/kg/injection, schedule: Q01DX009 (ip), vehicle: saline with Tween-80.
[9] abbreviates: dose: 100.0 mg/kg/injection, schedule: Q01DX009 (ip), vehicle: saline with Tween-80.
The mark [10] stands for this setting: dose: 200.0 mg/kg/injection, schedule: Q01DX009 (ip), vehicle: saline with Tween-80.
Setting [11] is: dose: 400.0 mg/kg/injection, schedule: Q01DX009 (ip), vehicle: saline with Tween-80.

For the molecule `COc1cccc2c1C(=O)c1c(O)c3c(c(O)c1C2=O)C[C@@](O)(/C(C)=N/NC(=O)c1ccc(Cl)cc1)C[C@@H]3OC1CC(N)C(O)C(C)O1` (some centres undefined), the T/C runs as follows: (dose: 0.5 mg/kg/injection, schedule: Q01DX009 (ip), vehicle: saline) 105 % of control; (dose: 2.0 mg/kg/injection, schedule: Q01DX009 (ip), vehicle: saline) 183 % of control; (dose: 4.0 mg/kg/injection, schedule: Q01DX009 (ip), vehicle: saline) 216 % of control; (dose: 8.0 mg/kg/injection, schedule: Q01DX009 (ip), vehicle: saline) 151 % of control.
Consider `[N-]=[N+]=CC(=O)CCC(=O)C=[N+]=[N-]`, for which the T/C (dose: 1.56 mg/kg/injection, schedule: Q01DX009 (ip), vehicle: DMSO) is 124 % of control.
`CC1(C)CC(=O)C(CSC(=O)c2ccccc2)C(=O)C1`: the T/C was 94 % of control (dose: 1.56 mg/kg/injection, schedule: Q01DX009 (ip), vehicle: Klucel (hydroxypropylcellulose) (HPC)); 97 % of control and 99 % of control (dose: 3.12 mg/kg/injection, schedule: Q01DX009 (ip), vehicle: Klucel (hydroxypropylcellulose) (HPC)); 98 % of control under setting [1]; 93 % of control under setting [2].
As for `NCC(=O)NC(Cc1ccc(O)cc1)C(=O)NCC(=O)O` (centres undefined) (HELM PEPTIDE1{G.[O=C(C(Cc1ccc(O)cc1)N[*:1])[*:2]].G}$$$$V2.0), the T/C by setting is: (dose: 50.0 mg/kg/injection, schedule: Q01DX009 (ip), vehicle: Klucel (hydroxypropylcellulose) (HPC)) 96 % of control; under setting [3], 98 % of control; under setting [4], 106 % of control.
As to `Cn1c2nc(=O)n(-c3ccccc3)c(=O)c-2nc2c1CCCC2`, the T/C runs as follows: (dose: 6.25 mg/kg/injection, schedule: Q01DX008 (ip), vehicle: saline with Tween-80) 96 % of control; under setting [5], 119 % of control; (dose: 12.5 mg/kg/injection, schedule: Q01DX008 (ip), vehicle: saline with Tween-80) 104 % of control; under setting [6], 107 % of control; (dose: 25.0 mg/kg/injection, schedule: Q01DX008 (ip), vehicle: saline with Tween-80) 101 % of control; under setting [7], 107 % of control. For the same molecule, the T/C reads like this: (dose: 50.0 mg/kg/injection, schedule: Q01DX008 (ip), vehicle: saline with Tween-80) 98 % of control; under setting [8], 101 % of control; under setting [9], 101 % of control and 102 % of control; under setting [10], 96 % of control and 97 % of control.
As to `CC(=O)OCC1OC([S-])C(OC(C)=O)C(OC(C)=O)C1OC(C)=O.CC[PH+](CC)CC.CC[PH+](CC)CC.[Au].[Au]` (centres undefined), the T/C is 110 % of control and 105 % of control (dose: 0.62 mg/kg/injection, schedule: Q01DX009 (ip), vehicle: Klucel (hydroxypropylcellulose) (HPC)); 109 % of control (dose: 1.25 mg/kg/injection, schedule: Q01DX009 (ip), vehicle: Klucel (hydroxypropylcellulose) (HPC)); 98 % of control and 103 % of control (dose: 2.5 mg/kg/injection, schedule: Q01DX009 (ip), vehicle: Klucel (hydroxypropylcellulose) (HPC)); 114 % of control and 97 % of control (dose: 5.0 mg/kg/injection, schedule: Q01DX009 (ip), vehicle: Klucel (hydroxypropylcellulose) (HPC)); 92 % of control (dose: 10.0 mg/kg/injection, schedule: Q01DX009 (ip), vehicle: Klucel (hydroxypropylcellulose) (HPC)).
Consider `CCC(C)(OC(C)=O)C(=O)OC1C(=O)OC2CC3C(C)=CC(O)C(O)C3(C)C3C4(O)OCC23C1C(C)C4O` (centres undefined), for which the T/C was 100 % of control (dose: 0.25 mg/kg/injection, schedule: Q01DX009 (ip), vehicle: saline + alcohol); 115 % of control (dose: 0.5 mg/kg/injection, schedule: Q01DX009 (ip), vehicle: saline + alcohol); 112 % of control (dose: 1.0 mg/kg/injection, schedule: Q01DX009 (ip), vehicle: saline + alcohol); 109 % of control (dose: 2.0 mg/kg/injection, schedule: Q01DX009 (ip), vehicle: saline + alcohol); 109 % of control (dose: 4.0 mg/kg/injection, schedule: Q01DX009 (ip), vehicle: saline + alcohol).
`COC(=O)[C@@]12OC[C@]34[C@H]([C@@H](O)[C@@H]1O)[C@@]1(C)CC(=O)C(OC(=O)CC(=O)OC5=C(C)[C@@H]6C[C@H]7OC(=O)[C@H](OC(=O)/C=C(\C)C(C)C)[C@H]8[C@]9(C(=O)OC)OC[C@]78[C@H]([C@@H](O)[C@@H]9O)[C@@]6(C)CC5=O)=C(C)[C@@H]1C[C@H]3OC(=O)[C@H](OC(=O)/C=C(\C)C(C)C)[C@@H]24`: the T/C (dose: 1.5 mg/kg/injection, schedule: Q01DX009 (ip), vehicle: saline + Tween-80 + alcohol) is 154 % of control.
In the case of `O=C(CN1CCOCC1)Nc1nc(-c2ccc(Cl)cc2)cs1`, the T/C is, setting by setting: under setting [6], 105 % of control; under setting [7], 94 % of control; under setting [8], 96 % of control; under setting [9], 103 % of control; under setting [10], 98 % of control.
On to `CCCC(NC(=O)OCc1ccccc1)C(=O)NC(Cc1ccccc1)C(N)=O` (centres undefined) (Cbz-[Nva]-Phe-NH2; configuration not given here), for which the T/C is 101 % of control under setting [3]; 91 % of control under setting [4]; 89 % of control (dose: 400.0 mg/kg/injection, schedule: Q01DX009 (ip), vehicle: Klucel (hydroxypropylcellulose) (HPC)).
Regarding `Cc1ccccc1N(C=O)c1ccccc1C`, the T/C under setting [9] is 97 % of control, the T/C under setting [10] is 97 % of control and the T/C under setting [11] was 97 % of control.
With `C[Si](C)(C)n1nnn(-c2ccccc2)c1=O`, the T/C is, setting by setting: under setting [6], 101 % of control and 103 % of control; under setting [7], 100 % of control and 105 % of control; under setting [8], 119 % of control and 100 % of control; under setting [9], 92 % of control and 95 % of control; under setting [10], 93 % of control and 101 % of control; under setting [11], 95 % of control.
`O=Cc1c(CO)cc(O)c(O)c1O`: the T/C was 115 % of control (dose: 3.13 mg/kg/injection, schedule: Q01DX009 (ip), vehicle: Klucel (hydroxypropylcellulose) (HPC)); 104 % of control under setting [1]; 89 % of control under setting [2]; 88 % of control (dose: 25.0 mg/kg/injection, schedule: Q01DX009 (ip), vehicle: Klucel (hydroxypropylcellulose) (HPC)).
`CS(=O)(=O)CS(=O)(=O)OCCCl`: the T/C reads like this: under setting [5], 114 % of control; under setting [6], 116 % of control; under setting [7], 169 % of control and 178 % of control; under setting [8], 228 % of control and 270 % of control; under setting [9], 331 % of control.
For the molecule `Cc1ccc(S(=O)(=O)OCCN(CCOS(=O)(=O)c2ccc(C)cc2)c2ccc(F)cc2)cc1`, the T/C is 109 % of control (dose: 3.12 mg/kg/injection, schedule: Q01DX009 (ip), vehicle: saline + alcohol); 109 % of control (dose: 6.25 mg/kg/injection, schedule: Q01DX009 (ip), vehicle: saline + alcohol); 108 % of control (dose: 12.5 mg/kg/injection, schedule: Q01DX009 (ip), vehicle: saline + alcohol); 111 % of control (dose: 25.0 mg/kg/injection, schedule: Q01DX009 (ip), vehicle: saline + alcohol); 108 % of control (dose: 50.0 mg/kg/injection, schedule: Q01DX009 (ip), vehicle: saline + alcohol).
With `O=C1NC(=O)C2C3C=CC(C12)C1C2C(=O)NC(=O)C2C31` (centres undefined), the T/C by setting is: under setting [6], 108 % of control and 100 % of control; (dose: 19.7 mg/kg/injection, schedule: Q01DX009 (ip), vehicle: water) 107 % of control; under setting [7], 114 % of control and 104 % of control; (dose: 32.9 mg/kg/injection, schedule: Q01DX009 (ip), vehicle: water) 98 % of control; under setting [8], 117 % of control; (dose: 54.8 mg/kg/injection, schedule: Q01DX009 (ip), vehicle: water) 117 % of control. The T/C under setting [9] was 120 % of control and 124 % of control.
As to `Cc1ccc(Cl)c2ccccc12`, the T/C is 101 % of control and 104 % of control under setting [6]; 100 % of control and 101 % of control and 104 % of control under setting [7]; 101 % of control and 105 % of control and 107 % of control under setting [8]; 94 % of control and 98 % of control under setting [9]; 94 % of control under setting [10].
With `COC(OC(CO)C(O)S(=O)(=O)O)C(O)S(=O)(=O)O` (centres undefined), the T/C is, setting by setting: (dose: 12.5 mg/kg/injection, schedule: Q01DX009 (ip), vehicle: saline) 108 % of control; (dose: 25.0 mg/kg/injection, schedule: Q01DX009 (ip), vehicle: saline) 115 % of control; (dose: 100.0 mg/kg/injection, schedule: Q01DX009 (ip), vehicle: saline) 155 % of control.
